From patent US10238657B2, “Heterocyclic compounds for treating psoriasis” (JS INNOPHARM (SHANGHAI LTD.), priority 2015, dated 2019)

Legend:
HaCaT cells [1] = experiment: Morphological examination of the effect on HaCaT cell differentiation; type: cell-based, human; settings: 48 h incubation, immunohistochemical staining
Experimental: HaCaT cells were cultured in DMEM culture medium containing 10% FBS under 37° C. and 5% CO2 concentration. When reaching 80% of the culture bottle area and after digestion by 0.25% trypsin, the cells were adjusted to a concentration of 4×10^4/ml and moved to a 6-well plate respectively (containing sterilized slide). Compound solutions were added. The cells were applied to the corresponding wells, and a blank control group (saline) was set. Both the sample groups and the control group were placed in a cell incubator at 37° C. Immumohistochemical staining was conducted after incubation at 48 h.
The imagine in FIG. 1A is dark brown, indicating large amount of keratin is present. […] Compound No. 5 underwent cornification (positive result).

HaCaT cells [2] = experiment: In-vitro screening with MTT method, inhibition of proliferation of HaCaT cells; type: cell-based, human; settings: about 48 hours incubation
Experimental: Compound No. 5 was dissolved in DMSO, and gradiently diluted with PBS to prepare solutions at concentration of 1000 μg/ml, 100 μg/ml, 10 μg/ml, 1 μg/ml, 0.1 μg/ml, and 0.01 μg/ml, respectively. Cis-platinum (CDDP) was used as positive control, and sample solutions were prepared with the same method. The sample solutions were added into a 96-well plate placed with the growth phase human immortalized keratinocyte (HaCaT) cells (Pharmacology Laboratory of Shanghai Institute of Pharmaceutical Industry), and were incubated for about 48 hours. The cell relative survival rate was determined by the MTT method, and calculated according to the following formula based on the light absorption value at […]. Cell relative survival rate=(Light absorption value of sample treatment group—background light absorption value)/(Light absorption value of DMSO treatment group—background light absorption value).

[3] = tested on: mouse vaginal epidermal cells; experiment: Effect on mitosis of mouse vaginal epidermal cells; type: in vivo; settings: cream 5% w/w, 25 μl intravaginal once daily, 3 days, estradiol-treated mice, n = 6
Experimental: Except for the saline control group, sexually mature female mice were injected with estradiol subcutaneously at a dosage of 35 mg/kg for 3 successive days. On the fourth day, in-estrus mice were selected with vaginal smear. The mice were randomly divided into several groups: (a) saline control group, saline was used in each administration; (b) blank cream group, blank cream was used in each administration; (c) calcipotriol control group, calcipotriol in cream (5% w/w) was used in each administration; (d) four testing groups, Compound No 5 in cream at concentration of 0.5%, 1%, 2%, and 4% (w/w), respectively, was used in each application. 25 μl corresponding treatment was injected into the vagina of the mice once daily for 3 successive days. Colchicine (15 mg/Kg) was intraperitoneally injected 2 hours after the last dosing. The mice were sacrificed 6 hours after the injection of colchicine. The vaginal tissue was taken out for pathological examination. The number of mitosis in one hundred basal cells was counted, which was named as the mitotic index.

guinea pig ear epidermis = experiment: Propranolole hydrochloride-induced psoriasis in guinea pig model; type: in vivo; settings: cream 5% w/w, 200 μl on both ears twice daily, 7 days
Experimental: Except for those in Saline control group, guinea pigs were treated with propranolole hydrochloride cream (5% w/w, 200 μl) uniformly applied on the back of both ears twice daily for four successive weeks. After four weeks, the […] were divided into several groups, namely, blank cream group, calcipotriol group, and four testing cream groups with Compound 5 at concentration of 0.5%, 1%, 2%, and 4% (w/w)), respectively. The guinea pigs in Saline control group were treated with saline on the back of both ears; the guinea pigs in other groups were treated with corresponding cream on the back of both ears (200 μl) twice daily for 7 successive days. The guinea pigs were examined during the experiment period and sacrificed 1 hour after the last dosing.

mouse tail epidermis = experiment: Effect on mouse tail epidermis (granular layer of tail scales); type: in vivo; settings: cream 5% (w/w), 100 μl once daily, 7 days, female mice, n = 10
Experimental: 70 female mice were randomly divided into several groups: (a) saline control group, saline was used in each administration; (b) blank cream group, blank cream was used in each administration; (c) calcipotriol control group, calcipotriol in cream (5% w/w) was used in each administration; (d) four testing groups, Compound No 5 in cream at 0.5%, 1%, 2%, and 4% (w/w), respectively, was used in each administration. 100 μl of corresponding treatment was applied to the same position on the tail of the mice once daily for seven successive days. The mice were sacrificed 1 hour after the last application. The treated skin parts were taken for pathological examination, and the tail scales of each mouse was assessed under a microscope. The number of scales having a granular layer in every 100 scales was counted, and the result was expressed as percentage.

[4] = tested on: chick chorioallantoic membrane; experiment: Chick chorioallantoic membrane (CAM) angiogenesis model; type: in vivo, chicken; settings: 4.0 μg/egg, 48 h
Experimental: Fresh eggs were incubated for 6 successive days under 37° C. and 50% humidity. On the 6th day, live eggs were identified and taken out for window-opening. First, the chorioallantoic membrane was located with illumination. Droplets of Compound No. […] After air dry, the filter paper was placed on the chorioallantoic membrane gently without contacting big vessels. The window was sealed with a transparent adhesive tape. The eggs were incubated for 48 hours continuously. The transparent adhesive tape was then uncovered. The window was enlarged and photos were taken under a dissecting microscope (FIGS. 2 A-B). New vessels were counted based on the number of blood vessel branch points in each photo. Inhibitory rate=100−[(number of new blood vessels in treatment group at 24 h)/(number of new blood vessels in treatment group at 0 h)]/[(number of blood vessels in negative control group at 24 h)/(number of blood vessels in negative control group at 0 h)]×100%.

SMILES | Test Results, effect on HaCat cell differentiation (HaCaT cells [1]) | also measured
Cc1cnc(Nc2ccc(F)cc2Cl)nc1-c1cc2n(c1)CCN([C@H](CO)c1ccc(Cl)cc1)C2=O [Compound 8, (S)-7-(2-((2-chloro-4-fluorophenyl)amino)-5-methylpyrimidin-4-yl)-2-(1-(4-chlorophenyl)-2-hydroxyethyl)-3,4-dihydropyrrolo[1,2-a]pyrazin-1(2H)-one] | Positive | –
Cc1cnc(NC2CCOCC2)nc1-c1cc2n(c1)CCN(C(c1ccc(Cl)c(F)c1)c1cnn(C)c1)C2=O (centres unmarked) [Compound 19, 2-((4-chloro-3-fluorophenyl)(1-methyl-1H-pyrazol-4-yl)methyl)-7-(5-methyl-2-((tetrahydro-2H-pyran-4-yl)amino)pyrimidin-4-yl)-3,4-dihydropyrrolo[1,2-a]pyrazin-1(2H)-one] | Positive | –
Cc1cnc(Nc2ccc(N3CCNCC3)cc2Cl)nc1-c1cc2n(c1)CCN([C@H](CO)c1cccc(Cl)c1)C2=O [Compound 11, (S)-7-(2-((2-chloro-4-(piperazin-1-yl)phenyl)amino)-5-methylpyrimidin-4-yl)-2-(1-(3-chlorophenyl)-2-hydroxyethyl)-3,4-dihydropyrrolo[1,2-a]pyrazin-1(2H)-one] | Positive | –
Cc1cnc(Nc2ccc(F)cc2Cl)nc1-c1cc2n(c1)CCN([C@H](CO)c1ccc(F)cc1)C2=O [Compound 10, (S)-7-(2-((2-chloro-4-fluorophenyl)amino)-5-methylpyrimidin-4-yl)-2-(1-(4-fluorophenyl)-2-hydroxyethyl)-3,4-dihydropyrrolo[1,2-a]pyrazin-1(2H)-one] | Positive | –
Cc1cnc(Nc2ccc(F)cc2Cl)nc1-c1cc2n(c1)CCCN([C@H](CO)c1cccc(Cl)c1)C2=O [Compound 7, (S)-8-(2-((2-chloro-4-fluorophenyl)amino)-5-methylpyrimidin-4-yl)-2-(1-(3-chlorophenyl)-2-hydroxyethyl)-2,3,4,5-tetrahydro-1H-pyrrolo[1,2-a][1,4]diazepin-1-one] | Positive | –
N.N.[Cl][Pt][Cl] [CDDP, Cis-platinum, reference compound] | – | HaCaT Cells IC50 (HaCaT cells [2]): 1.41 µg/mL
Cc1cnc(Nc2ccc(C3CCNCC3)cc2Cl)nc1-c1cc2n(c1)CCN([C@H](CO)c1cccc(Cl)c1)C2=O [Compound 12, (S)-7-(2-((2-chloro-4-(piperidin-4-yl)phenyl)amino)-5-methylpyrimidin-4-yl)-2-(1-(3-chlorophenyl)-2-hydroxyethyl)-3,4-dihydropyrrolo[1,2-a]pyrazin-1(2H)-one] | Positive | –
Cc1cnc(Nc2ccc(N3CCN(S(C)(=O)=O)CC3)cc2Cl)nc1-c1cc2n(c1)CCN([C@H](CO)c1cccc(Cl)c1)C2=O [Compound 16, (S)-7-(2-((2-chloro-4-(4-(methylsulfonyl)piperazin-1-yl)phenyl)amino)-5-methylpyrimidin-4-yl)-2-(1-(3-chlorophenyl)-2-hydroxyethyl)-3,4-dihydropyrrolo[1,2-a]pyrazin-1(2H)-one] | Positive | –
C[C@H](c1cccc(Cl)c1)N1CCn2cc(-c3c[nH]c4ncc(-c5ccccc5)cc34)cc2C1=O [Compound 2, (R)-2-(1-(3-chlorophenyl)ethyl)-7-(5-phenyl-1H-pyrrolo[2,3-b]pyridin-3-yl)-3,4-dihydropyrrolo[1,2-a]pyrazin-1(2H)-one] | Positive | –
Cc1cnc(Nc2ccc(F)cc2Cl)nc1-c1cc2n(c1)CCN([C@H](C)c1cccc(Cl)c1)C2=O [Compound 6, (R)-7-(2-((2-chloro-4-fluorophenyl)amino)-5-methylpyrimidin-4-yl)-2-(1-(3-chlorophenyl)ethyl)-3,4-dihydropyrrolo[1,2-a]pyrazin-1(2H)-one] | Positive | –
Cc1cnc(NC2CCCCC2)nc1-c1cc2n(c1)CCN([C@H](CO)c1cccc(Cl)c1)C2=O [Compound 20, (S)-2-(1-(3-chlorophenyl)-2-hydroxyethyl)-7-(2-(cyclohexylamino)-5-methylpyrimidin-4-yl)-3,4-dihydropyrrolo[1,2-a]pyrazin-1(2H)-one] | Positive | –
C[C@H](c1cccc(Cl)c1)N1CCn2cc(-c3n[nH]c4ncc(-c5ccccc5)cc34)cc2C1=O [Compound 3, (R)-2-(1-(3-chlorophenyl)ethyl)-7-(5-phenyl-1H-pyrazolo[3,4-b]pyridin-3-yl)-3,4-dihydropyrrolo[1,2-a]pyrazin-1(2H)-one] | Positive | –
Cc1cnc(Nc2ccc(C3CCN(C(C)C)CC3)cc2Cl)nc1-c1cc2n(c1)CCN([C@H](CO)c1cccc(Cl)c1)C2=O [Compound 13, (S)-7-(2-((2-chloro-4-(1-isopropylpiperidin-4-yl)phenyl)amino)-5-methylpyrimidin-4-yl)-2-(1-(3-chlorophenyl)-2-hydroxyethyl)-3,4-dihydropyrrolo[1,2-a]pyrazin-1(2H)-one] | Positive | –
Cc1cnc(Nc2ccc(F)cc2)nc1-c1cc2n(c1)CCN([C@H](CO)c1cccc(Cl)c1)C2=O [Compound 17, (S)-2-(1-(3-chlorophenyl)-2-hydroxyethyl)-7-(2-((4-fluorophenyl)amino)-5-methylpyrimidin-4-yl)-3,4-dihydropyrrolo[1,2-a]pyrazin-1(2H)-one] | Positive | –
C=C1/C(=C\C=C2/CCC[C@]3(C)[C@@H]([C@H](C)/C=C/[C@@H](O)C4CC4)CC[C@@H]23)C[C@@H](O)C[C@@H]1O [Calcipotriol, calcipotriol, reference compound] | – | Mitotic cell number/total cell number (%) [3]: 15.33 ± 1.21 %; Epidermal thickness (μm) (guinea pig ear epidermis): 158.72 ± 2.93 μm; Scales quantity in granular layer * 100% (mouse tail epidermis): 50.50 ± 4.95 %
Cc1cnc(Nc2ccc(F)cc2Cl)nc1-c1cc2n(c1)CCN([C@H](CO)c1cccc(F)c1)C2=O [Compound 9, (S)-7-(2-((2-chloro-4-fluorophenyl)amino)-5-methylpyrimidin-4-yl)-2-(1-(3-fluorophenyl)-2-hydroxyethyl)-3,4-dihydropyrrolo[1,2-a]pyrazin-1(2H)-one] | Positive | –
CNC(=O)c1cc(Oc2ccc(NC(=O)Nc3ccc(Cl)c(C(F)(F)F)c3)cc2)ccn1 [Sorafeni, Sorafenib, reference compound] | – | Number of new blood vessels 48 h ([4]; n = 3): 18.17 ± 7.60; Inhibitory rate (%) ([4]; versus PBS group): 77.27%
